{
  "source": "patent US20260285850A1",
  "about": "“SUBSTITUTED OXAZOLIDINONES AND IMIDAZOLINONES AS HERBICIDES” (FMC CORPORATION, priority 2023, published 2026)",
  "assay_type_in_all_cases": "in vivo",
  "key": {"[1]": {"test_system": "green foxtail (Setaria viridis)", "test": "Test A postemergence application, visual injury rating 0-100", "outline": "(§1)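 Plants in a loam and sand soil blend were treated with each test chemical, in a non-phytotoxic solvent system including surfactant, either sprayed on seeded soil before emergence or applied after emergence at the one- to two-leaf stage. Ten days later in the greenhouse, plants were compared with untreated controls and visually rated from 0 (no effect) to 100 (complete control).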"}, "[2]": {"test_system": "barnyardgrass (Echinochloa crus-galli)", "test": "Test A postemergence application, visual injury rating 0-100", "outline": "as §1"}, "[3]": {"test_system": "oat, wild (wild oat, Avena fatua)", "test": "Test A postemergence application, visual injury rating 0-100", "outline": "as §1"}, "[4]": {"test_system": "horseweed (Erigeron canadensis)", "test": "Test A postemergence application, visual injury rating 0-100", "outline": "as §1"}, "[5]": {"test_system": "wheat (Triticum aestivum)", "test": "Test A postemergence application, visual injury rating 0-100", "outline": "as §1"}, "[6]": {"test_system": "ryegrass, Italian (italian ryegrass, Lolium multiflorum)", "test": "Test A postemergence application, visual injury rating 0-100", "outline": "as §1"}, "[7]": {"test_system": "ragweed (common ragweed, Ambrosia artemisiifolia)", "test": "Test A postemergence application, visual injury rating 0-100", "outline": "as §1"}, "[8]": {"test_system": "corn (Zea mays)", "test": "Test A postemergence application, visual injury rating 0-100", "outline": "as §1"}, "[9]": {"test_system": "soybean (Glycine max)", "test": "Test A postemergence application, visual injury rating 0-100", "outline": "as §1"}, "[10]": {"test_system": "galium (catchweed bedstraw, Galium aparine)", "test": "Test A postemergence application, visual injury rating 0-100", "outline": "as §1"}, "[11]": {"test_system": "kochia (Bassia scoparia)", "test": "Test A postemergence application, visual injury rating 0-100", "outline": "as §1"}, "[12]": {"test_system": "blackgrass (Alopecurus myosuroides)", "test": "Test A postemergence application, visual injury rating 0-100", "outline": "as §1"}, "[13]": {"test_system": "palmer (palmer amaranth, palmer pigweed, Amaranthus palmeri)", "test": "Test A postemergence application, visual injury rating 0-100", "outline": "as §1"}, "[14]": {"test_system": "rice (Oryza sativa)", "test": "Test B flooded paddy test, visual plant response rating 0-100", "details": "250 g ai/ha, Flood, applied to paddy water, evaluated after 13 days", "outline": "(§2)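 Treatment occurs at the 2-leaf stage by adding compound to floodwater standing 3 cm above the soil, a level kept for the whole test. Plants stay in the greenhouse 13 days before visual comparison with controls.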"}, "[15]": {"test_system": "sedge, umbrella (small-flower umbrella sedge, Cyperus difformis)", "test": "Test B flooded paddy test, visual plant response rating 0-100", "details": "250 g ai/ha, Flood, applied to paddy water, evaluated after 13 days", "outline": "as §2"}, "[16]": {"test_system": "barnyardgrass (Echinochloa crusgalli)", "test": "Test B flooded paddy test, visual plant response rating 0-100", "details": "250 g ai/ha, Flood, applied to paddy water, evaluated after 13 days", "outline": "as §2"}, "[17]": {"test_system": "ducksalad (Heteranthera limosa)", "test": "Test B flooded paddy test, visual plant response rating 0-100", "details": "250 g ai/ha, Flood, applied to paddy water, evaluated after 13 days", "outline": "as §2"}, "[18]": {"test_system": "green foxtail (Setaria viridis)", "test": "Test A preemergence soil spray, visual injury rating 0-100", "details": "10 days", "outline": "as §1"}, "[19]": {"test_system": "barnyardgrass (Echinochloa crus-galli)", "test": "Test A preemergence soil spray, visual injury rating 0-100", "details": "10 days", "outline": "as §1"}, "[20]": {"test_system": "oat, wild (wild oat, Avena fatua)", "test": "Test A preemergence soil spray, visual injury rating 0-100", "details": "10 days", "outline": "as §1"}, "[21]": {"test_system": "wheat (Triticum aestivum)", "test": "Test A preemergence soil spray, visual injury rating 0-100", "details": "10 days", "outline": "as §1"}, "[22]": {"test_system": "ryegrass, Italian (italian ryegrass, Lolium multiflorum)", "test": "Test A preemergence soil spray, visual injury rating 0-100", "details": "10 days", "outline": "as §1"}, "[23]": {"test_system": "ragweed (common ragweed, Ambrosia artemisiifolia)", "test": "Test A preemergence soil spray, visual injury rating 0-100", "details": "10 days", "outline": "as §1"}, "[24]": {"test_system": "corn (Zea mays)", "test": "Test A preemergence soil spray, visual injury rating 0-100", "details": "10 days", "outline": "as §1"}, "[25]": {"test_system": "soybean (Glycine max)", "test": "Test A preemergence soil spray, visual injury rating 0-100", "details": "10 days", "outline": "as §1"}, "[26]": {"test_system": "kochia (Bassia scoparia)", "test": "Test A preemergence soil spray, visual injury rating 0-100", "details": "10 days", "outline": "as §1"}, "[27]": {"test_system": "blackgrass (Alopecurus myosuroides)", "test": "Test A preemergence soil spray, visual injury rating 0-100", "details": "10 days", "outline": "as §1"}, "[28]": {"test_system": "palmer (palmer amaranth, palmer pigweed, Amaranthus palmeri)", "test": "Test A preemergence soil spray, visual injury rating 0-100", "details": "10 days", "outline": "as §1"}, "[29]": {"details": "62 g ai/ha, postemergence, 10 days, 0 = no effect, 100 = complete control"}, "[30]": {"details": "Postemergence, 16 g ai/ha, greenhouse 10 days, 0 no effect, 100 complete control"}, "[31]": {"details": "62 g ai/ha, 0 = no effect, 100 = complete control"}},
  "data": [
    {"smiles": "COC(=O)C1CC(NC(=O)C2(C)CN(c3cc(F)cc(F)c3)C(=O)O2)C1", "note": "(stereo not shown) [Compound 130]", "values": [
      {"measurement": "Foxtail, Green plant response rating (0-100)", "setting": "[1]; [29]", "result": 90},
      {"measurement": "Foxtail, Green plant response rating (0 to 100 scale)", "setting": "[1]; [30]", "result": 90},
      {"measurement": "Barnyardgrass plant response rating (0-100)", "setting": "[2]; [29]", "result": 80},
      {"measurement": "Barnyardgrass plant response rating (0 to 100 scale)", "setting": "[2]; [30]", "result": 70},
      {"measurement": "Oat, Wild plant response rating (0-100)", "setting": "[3]; [29]", "result": 90},
      {"measurement": "Oat, Wild plant response rating (0 to 100 scale)", "setting": "[3]; [30]", "result": 90},
      {"measurement": "Horseweed plant response rating (0-100)", "setting": "[4]; [29]", "result": 30},
      {"measurement": "Horseweed plant response rating (0 to 100 scale)", "setting": "[4]; [30]", "result": 10},
      {"measurement": "Wheat plant response rating (0-100)", "setting": "[5]; [29]", "result": 90},
      {"measurement": "Wheat plant response rating (0 to 100 scale)", "setting": "[5]; [30]", "result": 90},
      {"measurement": "Ryegrass, Italian plant response rating (0-100)", "setting": "[6]; [29]", "result": 90},
      {"measurement": "Ryegrass, Italian plant response rating (0 to 100 scale)", "setting": "[6]; [30]", "result": 70},
      {"measurement": "Ragweed plant response rating (0-100)", "setting": "[7]; [29]", "result": 30},
      {"measurement": "Ragweed plant response rating (0 to 100 scale)", "setting": "[7]; [30]", "result": 20},
      {"measurement": "Corn plant response rating (0-100)", "setting": "[8]; [29]", "result": 100},
      {"measurement": "Corn plant response rating (0 to 100 scale)", "setting": "[8]; [30]", "result": 100},
      {"measurement": "Soybean plant response rating (0-100)", "setting": "[9]; [29]", "result": 70},
      {"measurement": "Soybean plant response rating (0 to 100 scale)", "setting": "[9]; [30]", "result": 60},
      {"measurement": "Galium plant response rating (0-100)", "setting": "[10]; [29]", "result": 90},
      {"measurement": "Galium plant response rating (0 to 100 scale)", "setting": "[10]; [30]", "result": 70},
      {"measurement": "Kochia plant response rating (0-100)", "setting": "[11]; [29]", "result": 90},
      {"measurement": "Kochia plant response rating (0 to 100 scale)", "setting": "[11]; [30]", "result": 80},
      {"measurement": "Blackgrass plant response rating (0-100)", "setting": "[12]; [29]", "result": 90},
      {"measurement": "Blackgrass plant response rating (0 to 100 scale)", "setting": "[12]; [30]", "result": 90},
      {"measurement": "Pigweed, Palmer plant response rating (0-100)", "setting": "[13]; [29]", "result": 90},
      {"measurement": "Pigweed, Palmer plant response rating (0 to 100 scale)", "setting": "[13]; [30]", "result": 80},
      {"measurement": "Plant response rating, Rice (0 to 100 scale, 0 is no effect and 100 is complete control)", "setting": "[14]", "result": 60},
      {"measurement": "Plant response rating, Sedge, Umbrella (0 to 100 scale, 0 is no effect and 100 is complete control)", "setting": "[15]", "result": 90},
      {"measurement": "Plant response rating, Barnyardgrass (0 to 100 scale, 0 is no effect and 100 is complete control)", "setting": "[16]", "result": 80},
      {"measurement": "Plant response rating, Ducksalad (0 to 100 scale, 0 is no effect and 100 is complete control)", "setting": "[17]", "result": 100},
      {"measurement": "Foxtail, Green plant response rating", "setting": "[18]; 16 g ai/ha, 0 to 100 scale", "result": 50},
      {"measurement": "Foxtail, Green plant response rating (0-100)", "setting": "[18]; [31]", "result": 90},
      {"measurement": "Barnyardgrass plant response rating", "setting": "[19]; 16 g ai/ha, 0 to 100 scale", "result": 0},
      {"measurement": "Barnyardgrass plant response rating (0-100)", "setting": "[19]; [31]", "result": 70},
      {"measurement": "Oat, Wild plant response rating", "setting": "[20]; 16 g ai/ha, 0 to 100 scale", "result": 50},
      {"measurement": "Oat, Wild plant response rating (0-100)", "setting": "[20]; [31]", "result": 90},
      {"measurement": "Wheat plant response rating", "setting": "[21]; 16 g ai/ha, 0 to 100 scale", "result": 90},
      {"measurement": "Wheat plant response rating (0-100)", "setting": "[21]; [31]", "result": 90},
      {"measurement": "Ryegrass, Italian plant response rating", "setting": "[22]; 16 g ai/ha, 0 to 100 scale", "result": 40},
      {"measurement": "Ryegrass, Italian plant response rating (0-100)", "setting": "[22]; [31]", "result": 90},
      {"measurement": "Ragweed plant response rating", "setting": "[23]; 16 g ai/ha, 0 to 100 scale", "result": 0},
      {"measurement": "Ragweed plant response rating (0-100)", "setting": "[23]; [31]", "result": 0},
      {"measurement": "Corn plant response rating", "setting": "[24]; 16 g ai/ha, 0 to 100 scale", "result": 10},
      {"measurement": "Corn plant response rating (0-100)", "setting": "[24]; [31]", "result": 90},
      {"measurement": "Soybean plant response rating", "setting": "[25]; 16 g ai/ha, 0 to 100 scale", "result": 0},
      {"measurement": "Soybean plant response rating (0-100)", "setting": "[25]; [31]", "result": 40},
      {"measurement": "Kochia plant response rating", "setting": "[26]; 16 g ai/ha, 0 to 100 scale", "result": 0},
      {"measurement": "Kochia plant response rating (0-100)", "setting": "[26]; [31]", "result": 90},
      {"measurement": "Blackgrass plant response rating", "setting": "[27]; 16 g ai/ha, 0 to 100 scale", "result": 70},
      {"measurement": "Blackgrass plant response rating (0-100)", "setting": "[27]; [31]", "result": 90},
      {"measurement": "Pigweed, Palmer plant response rating", "setting": "[28]; 16 g ai/ha, 0 to 100 scale", "result": 10},
      {"measurement": "Pigweed, Palmer plant response rating (0-100)", "setting": "[28]; [31]", "result": 30}
    ]}
  ]
}
